Experiments:
Solubility = format: physicochemical; conditions: read-out: Löslichkeit
[1] = Viscosity of aqueous solutions; format: physicochemical; conditions: Lösungen in Wasser mit 300 mg I/ml bei 37°C
Method: (§1) Die Osmolalität und Viskosität beziehen sich auf Lösungen in Wasser mit 300 mg I/ml bei 37°C.

[2] = Osmolality of aqueous solutions; format: physicochemical; conditions: Lösungen in Wasser mit 300 mg I/ml bei 37°C
Method: as §1

[3] = bei 300 mg I/ml; commercial contrast agents; cited from earlier work

In the case of `CNC(=O)c1c(I)c(N(CCC(O)CO)C(C)=O)c(I)c(N(CCC(O)CO)C(C)=O)c1I` (stereo not shown) [VI, 3,5-Bis(N-(3,4-dihydroxybutyl)-acetamido)-2,4,6-triiodbenzoesäure-N-methylamid], the solubility (Solubility) is reported as > 1000 mg/mL, the Viskosität [1] is reported as 5,3 cps and the Osmolalität [2] is reported as 545 mOsmol/kg.
For `CC(=O)N(CCC(O)CO)c1c(I)c(C(=O)N(C)CCN(C)C(=O)c2c(I)c(N(CCC(O)CO)C(C)=O)c(I)c(N(CCC(O)CO)C(C)=O)c2I)c(I)c(N(CCC(O)CO)C(C)=O)c1I` (stereo not shown) [XV], the solubility (Solubility) was > 1000 mg/mL, the Viskosität [1] was 16,5 cps and the Osmolalität [2] was 255 mOsmol/kg.
For `CNC(=O)c1c(I)c(C(=O)NCC(O)CO)c(I)c(N(CCCC(O)CO)C(C)=O)c1I` (stereo not shown) [XIX, 5-(N-(4,5-dihydroxypentyl)-acetamido)-2,4,6-triiod-N-methyl-N'-(2,3-dihydroxypropyl)-isophthaldiamid], the solubility (Solubility) was > 1000 mg/mL, the Viskosität [1] was 5,8 cps and the Osmolalität [2] was 405 mOsmol/kg.
For `CC(=O)N(CCC(O)CO)c1c(I)c(C(=O)N(C)C)c(I)c(N(CCC(O)CO)C(C)=O)c1I` (stereo not shown) [VII, 3,5-Bis(N-(3,4-dihydroxybutyl)-acetamido)-2,4,6-triiodbenzoesäure-N,N-dimethylamid], the solubility (Solubility) was > 1000 mg/mL, the Viskosität [1] was 4,5 cps and the Osmolalität [2] was 535 mOsmol/kg.
In the case of `CNC(=O)c1c(I)c(N(CCCC(O)CO)C(C)=O)c(I)c(N(CCCC(O)CO)C(C)=O)c1I` (stereo not shown) [VIII, 3,5-Bis(N-(4,5-dihydroxypentyl)-acetamido)-2,4,6-tri iodbenzoesäure-N-methylamid], the solubility (Solubility) is reported as > 1000 mg/mL, the Viskosität [1] is reported as 7,5 cps and the Osmolalität [2] is reported as 330 mOsmol/kg.
In the case of `CC(=O)N(CCCC(O)CO)c1c(I)c(C(=O)N(C)C)c(I)c(N(CCCC(O)CO)C(C)=O)c1I` (stereo not shown) [IX, 3,5-Bis(N-(4,5-dihydroxypentyl)-acetamido)-2,4,6-triiodbenzoesäure-N,N-dimethylamid], the solubility (Solubility) is reported as > 1000 mg/mL, the Viskosität [1] is reported as 6,3 cps and the Osmolalität [2] is reported as 500 mOsmol/kg.
For `CC(=O)Nc1c(I)c(C(=O)N[C@H]2C(O)O[C@H](CO)[C@@H](O)[C@@H]2O)c(I)c(N(C)C(C)=O)c1I` (stereo partly shown) [Metrizamid], the Osmolalitäten [3] is listed as 485 mOsmol/kg.
